Assay results taken from US6413913B1, “Thiono-thiochroman and -dihydrobenzothiophene compounds as herbicidal agents” (BASF Corporation, priority 1999, dated 2002).

What was measured:
[1] = system: ECHCG (Barnyardgrass); assay: Postemergence herbicidal evaluation; assay type: in vivo, Echinochloa crus-galli, (L.) Beau; details: rated about 2-3 weeks after treatment, scale 0-9, averaged
Protocol: (§1) Seedling plants are grown in jiffy flats for about two weeks. The test compounds are dispersed in 80/20 (v/v) acetone/water mixtures containing 1.0% SUN-IT® II, a methylated seed oil, in sufficient quantities to provide the equivalent of about 0.006 kg/ha to 0.800 kg/ha of active compound when applied to the plants through a spray nozzle operating at 40 psi for a predetermined time. After spraying, the plants are placed on greenhouse benches and are cared for in accordance with conventional greenhouse procedures. Approximately two—three weeks after treatment, the seedling plants are examined and rated according to the rating system set forth below. Where more than one test is involved for a given compound, the data are averaged.

[2] = system: PANDI (Panicum, Fall); assay: Postemergence herbicidal evaluation; assay type: in vivo, Panicum dichotomiflorum, Michx.; details: rated about 2-3 weeks after treatment, scale 0-9, averaged
Protocol: as §1

[3] = system: ABUTH (Velvetleaf); assay: Preemergence herbicidal evaluation; assay type: in vivo, Abutilon theophrasti, Medic.; details: rated about 2-4 weeks after treatment, scale 0-9
Text: (§2) In these tests, seeds of a variety of monocotyledonous and dicotyledonous plants are separately mixed with potting soil and planted on top of approximately one inch of soil in separate pint cups. After planting, the cups are sprayed with the selected aqueous acetone solution containing test compound in sufficient quantity to provide the equivalent of about 0.0125 to 0.800 kg per hectare of test compound per cup. The treated cups are then placed on greenhouse benches, watered and cared for in accordance with conventional greenhouse procedures. Approximately two—four weeks after treatment, the tests are terminated and each cup is examined and rated according to the rating system provided in Example 6.

[4] = system: ZEAMX (Corn, Field); assay: Postemergence herbicidal evaluation (crop); assay type: in vivo, Zea mays, L.; details: rated about 2-3 weeks after treatment, scale 0-9, averaged
Protocol: as §1

[5] = system: ABUTH (Velvetleaf); assay: Postemergence herbicidal evaluation; assay type: in vivo, Abutilon theophrasti, Medic.; details: rated about 2-3 weeks after treatment, scale 0-9, averaged
Protocol: as §1

[6] = system: PANDI (Panicum, Fall); assay: Preemergence herbicidal evaluation; assay type: in vivo, Panicum dichotomiflorum, Michx.; details: rated about 2-4 weeks after treatment, scale 0-9
Text: as §2

[7] = system: SETVI (Foxtail, Green); assay: Preemergence herbicidal evaluation; assay type: in vivo, Setaria viridis, (L.) Beau; details: rated about 2-4 weeks after treatment, scale 0-9
Text: as §2

[8] = system: SETVI (Foxtail, Green); assay: Postemergence herbicidal evaluation; assay type: in vivo, Setaria viridis, (L.) Beau; details: rated about 2-3 weeks after treatment, scale 0-9, averaged
Protocol: as §1

[9] = system: AMBEL (Ragweed, Common); assay: Postemergence herbicidal evaluation; assay type: in vivo, Ambrosia artemisifolia, L.; details: rated about 2-3 weeks after treatment, scale 0-9, averaged
Protocol: as §1

[10] = system: ECHCG (Barnyardgrass); assay: Preemergence herbicidal evaluation; assay type: in vivo, Echinochloa crus-galli, (L.) Beau; details: rated about 2-4 weeks after treatment, scale 0-9
Text: as §2

[11] = system: AMBEL (Ragweed, Common); assay: Preemergence herbicidal evaluation; assay type: in vivo, Ambrosia artemisifolia, L.; details: rated about 2-4 weeks after treatment, scale 0-9
Text: as §2

[12] = system: IPOHE (Morningglory, Ivyleaf); assay: Postemergence herbicidal evaluation; assay type: in vivo, Ipomoea hederacea, (L) Jacq.; details: rated about 2-3 weeks after treatment, scale 0-9, averaged
Protocol: as §1

[13] = system: IPOHE (Morningglory, Ivyleaf); assay: Preemergence herbicidal evaluation; assay type: in vivo, Ipomoea hederacea, (L) Jacq.; details: rated about 2-4 weeks after treatment, scale 0-9
Text: as §2

[14] = system: ZEAMX (Corn, Field); assay: Preemergence herbicidal evaluation (crop); assay type: in vivo, Zea mays, L.
Text: as §2

[15] = preemergence, 0.050 kg/ha, rated about 2-4 weeks after treatment, scale 0-9
[16] = preemergence, 0.100 kg/ha, rated about 2-4 weeks after treatment, scale 0-9

## CCn1ncc(C(=S)c2ccc3c(c2C)/C(=N/OC)CCS3(=O)=O)c1O [Example 1, 6-[(1-Ethyl-5-hydroxypyrazol-4-yl)thicarbonyl]-5-methylthiochroman-4-one (E) -O-Methyloxime, 1,1-Dioxide]
[1]; 0.050 kg/ha
  Herbicide rating ECHCG: 8.0
[1]; 0.100 kg/ha
  Herbicide rating ECHCG: 7.8
[2]; 0.050 kg/ha
  Herbicide rating PANDI: 6.3
[2]; 0.100 kg/ha
  Herbicide rating PANDI: 6.5
[3]; 0.050 kg/ha
  Herbicide rating ABUTH: 7.3
[3]; 0.100 kg/ha
  Herbicide rating ABUTH: 9.0
[4]; 0.050 kg/ha
  Herbicide rating ZEAMX (crop injury, corn): 1.2
[4]; 0.100 kg/ha
  Herbicide rating ZEAMX (crop injury, corn): 3.0
[5]; 0.050 kg/ha
  Herbicide rating ABUTH: 7.6
[5]; 0.100 kg/ha
  Herbicide rating ABUTH: 8.0
[6]; 0.050 kg/ha
  Herbicide rating PANDI: 8.0
[6]; 0.100 kg/ha
  Herbicide rating PANDI: 8.5
[7]; 0.050 kg/ha
  Herbicide rating SETVI: 6.6
[7]; 0.100 kg/ha
  Herbicide rating SETVI: 8.4
[8]; 0.050 kg/ha
  Herbicide rating SETVI: 8.5
[8]; 0.100 kg/ha
  Herbicide rating SETVI: 9.0
[9]; 0.050 kg/ha
  Herbicide rating AMBEL: 8.2
[9]; 0.100 kg/ha
  Herbicide rating AMBEL: 8.4
[10]; 0.050 kg/ha
  Herbicide rating ECHCG: 5.8
[10]; 0.100 kg/ha
  Herbicide rating ECHCG: 8.3
[11]; 0.050 kg/ha
  Herbicide rating AMBEL: 8.5
[11]; 0.100 kg/ha
  Herbicide rating AMBEL: 8.8
[12]; 0.050 kg/ha
  Herbicide rating IPOHE: 2.0
[12]; 0.100 kg/ha
  Herbicide rating IPOHE: 3.0
[13]; 0.050 kg/ha
  Herbicide rating IPOHE: 2.5
[13]; 0.100 kg/ha
  Herbicide rating IPOHE: 6.0
[14]; [15]
  Herbicide rating ZEAMX (crop injury, corn): 0.0
[14]; [16]
  Herbicide rating ZEAMX (crop injury, corn): 0.8

## CCn1ncc(C(=S)c2cc(C)c3c(c2C)C(C)(C)CCS3(=O)=O)c1O [Example 2]
[1]; 0.050 kg/ha
  Herbicide rating ECHCG: 5.0
[1]; 0.100 kg/ha
  Herbicide rating ECHCG: 9.0
[2]; 0.050 kg/ha
  Herbicide rating PANDI: 5.0
[2]; 0.100 kg/ha
  Herbicide rating PANDI: 4.0
[3]; 0.050 kg/ha
  Herbicide rating ABUTH: 3.0
[3]; 0.100 kg/ha
  Herbicide rating ABUTH: 9.0
[5]; 0.050 kg/ha
  Herbicide rating ABUTH: 9.0
[5]; 0.100 kg/ha
  Herbicide rating ABUTH: 9.0
[6]; 0.050 kg/ha
  Herbicide rating PANDI: 5.0
[6]; 0.100 kg/ha
  Herbicide rating PANDI: 7.0
[7]; 0.050 kg/ha
  Herbicide rating SETVI: 4.0
[7]; 0.100 kg/ha
  Herbicide rating SETVI: 5.0
[8]; 0.050 kg/ha
  Herbicide rating SETVI: 9.0
[8]; 0.100 kg/ha
  Herbicide rating SETVI: 9.0
[9]; 0.050 kg/ha
  Herbicide rating AMBEL: 6.0
[9]; 0.100 kg/ha
  Herbicide rating AMBEL: 9.0
[10]; 0.050 kg/ha
  Herbicide rating ECHCG: 0.0
[10]; 0.100 kg/ha
  Herbicide rating ECHCG: 3.0
[11]; 0.050 kg/ha
  Herbicide rating AMBEL: 2.0
[11]; 0.100 kg/ha
  Herbicide rating AMBEL: 3.0
[12]; 0.050 kg/ha
  Herbicide rating IPOHE: 2.0
[12]; 0.100 kg/ha
  Herbicide rating IPOHE: 4.0
[13]; 0.050 kg/ha
  Herbicide rating IPOHE: 0.0
[13]; 0.100 kg/ha
  Herbicide rating IPOHE: 0.0
[14]; in vivo
  Herbicide rating ZEAMX (crop injury, corn): 0.0

## Cc1c(C(=S)c2cnn(C)c2O)ccc2c1C(C)(C)CS2(=O)=O [Example 3]
[1]; 0.050 kg/ha
  Herbicide rating ECHCG: 7.0
[1]; 0.100 kg/ha
  Herbicide rating ECHCG: 9.0
[2]; 0.050 kg/ha
  Herbicide rating PANDI: 7.0
[2]; 0.100 kg/ha
  Herbicide rating PANDI: 8.0
[3]; 0.050 kg/ha
  Herbicide rating ABUTH: 8.0
[3]; 0.100 kg/ha
  Herbicide rating ABUTH: 9.0
[5]; 0.050 kg/ha
  Herbicide rating ABUTH: 9.0
[5]; 0.100 kg/ha
  Herbicide rating ABUTH: 8.0
[6]; 0.050 kg/ha
  Herbicide rating PANDI: 6.5
[6]; 0.100 kg/ha
  Herbicide rating PANDI: 8.0
[7]; 0.050 kg/ha
  Herbicide rating SETVI: 5.0
[7]; 0.100 kg/ha
  Herbicide rating SETVI: 7.0
[8]; 0.050 kg/ha
  Herbicide rating SETVI: 8.0
[8]; 0.100 kg/ha
  Herbicide rating SETVI: 8.0
[9]; 0.050 kg/ha
  Herbicide rating AMBEL: 9.0
[9]; 0.100 kg/ha
  Herbicide rating AMBEL: 8.0
[10]; 0.050 kg/ha
  Herbicide rating ECHCG: 7.0
[10]; 0.100 kg/ha
  Herbicide rating ECHCG: 8.5
[11]; 0.050 kg/ha
  Herbicide rating AMBEL: 5.5
[11]; 0.100 kg/ha
  Herbicide rating AMBEL: 7.0
[13]; 0.050 kg/ha
  Herbicide rating IPOHE: 2.0
[13]; 0.100 kg/ha
  Herbicide rating IPOHE: 2.0
[14]; in vivo
  Herbicide rating ZEAMX (crop injury, corn): 0.0

## CCn1ncc(C(=S)c2ccc3c(c2C)C(C)(C)CS3(=O)=O)c1O [Example 4]
[1]; 0.050 kg/ha
  Herbicide rating ECHCG: 8.0
[1]; 0.100 kg/ha
  Herbicide rating ECHCG: 8.0
[2]; 0.050 kg/ha
  Herbicide rating PANDI: 3.0
[2]; 0.100 kg/ha
  Herbicide rating PANDI: 9.0
[3]; 0.050 kg/ha
  Herbicide rating ABUTH: 6.0
[3]; 0.100 kg/ha
  Herbicide rating ABUTH: 9.0
[5]; 0.050 kg/ha
  Herbicide rating ABUTH: 4.0
[5]; 0.100 kg/ha
  Herbicide rating ABUTH: 7.0
[6]; 0.050 kg/ha
  Herbicide rating PANDI: 2.0
[6]; 0.100 kg/ha
  Herbicide rating PANDI: 7.0
[7]; 0.050 kg/ha
  Herbicide rating SETVI: 3.0
[7]; 0.100 kg/ha
  Herbicide rating SETVI: 3.0
[8]; 0.050 kg/ha
  Herbicide rating SETVI: 4.0
[8]; 0.100 kg/ha
  Herbicide rating SETVI: 7.0
[9]; 0.050 kg/ha
  Herbicide rating AMBEL: 8.0
[9]; 0.100 kg/ha
  Herbicide rating AMBEL: 8.0
[10]; 0.050 kg/ha
  Herbicide rating ECHCG: 2.0
[10]; 0.100 kg/ha
  Herbicide rating ECHCG: 9.0
[11]; 0.050 kg/ha
  Herbicide rating AMBEL: 2.0
[11]; 0.100 kg/ha
  Herbicide rating AMBEL: 9.0
[12]; 0.050 kg/ha
  Herbicide rating IPOHE: 4.0
[12]; 0.100 kg/ha
  Herbicide rating IPOHE: 4.0
[13]; 0.050 kg/ha
  Herbicide rating IPOHE: 1.0
[13]; 0.100 kg/ha
  Herbicide rating IPOHE: 1.0
[14]; in vivo
  Herbicide rating ZEAMX (crop injury, corn): 0.0

## CCCS(=O)(=O)Oc1c(C(=S)c2ccc3c(c2C)/C(=N/OC)CCS3(=O)=O)cnn1CC [Example 5]
[3]; 0.050 kg/ha
  Herbicide rating ABUTH: 9.0
[3]; 0.100 kg/ha
  Herbicide rating ABUTH: 9.0
[4]; 0.050 kg/ha
  Herbicide rating ZEAMX (crop injury, corn): 0.0
[4]; 0.100 kg/ha
  Herbicide rating ZEAMX (crop injury, corn): 3.0
[6]; 0.050 kg/ha
  Herbicide rating PANDI: 7.0
[6]; 0.100 kg/ha
  Herbicide rating PANDI: 7.0
[7]; 0.050 kg/ha
  Herbicide rating SETVI: 6.0
[7]; 0.100 kg/ha
  Herbicide rating SETVI: 6.0
[10]; 0.050 kg/ha
  Herbicide rating ECHCG: 6.0
[10]; 0.100 kg/ha
  Herbicide rating ECHCG: 6.0
[11]; 0.050 kg/ha
  Herbicide rating AMBEL: 7.0
[11]; 0.100 kg/ha
  Herbicide rating AMBEL: 9.0
[14]; [15]
  Herbicide rating ZEAMX (crop injury, corn): 0.0
[14]; [16]
  Herbicide rating ZEAMX (crop injury, corn): 0.0
